From ChEMBL document CHEMBL5131564, “Discovery of Potent and Selective Receptor-Interacting Serine/Threonine Protein Kinase 2 (RIPK2) Inhibitors for the Treatment of Inflammatory Bowel Diseases (IBDs)” (J Med Chem, 2022)
Activity calls are given as the source filed them. The rule behind the calls is not given here.

Columns and labels:
[1] = target: T1, Receptor-type tyrosine-protein kinase FLT3 (Homo sapiens, UniProt P36888); assay: Inhibition of human FLT3 by kinase assay
T1 sequence (P36888 whole entry): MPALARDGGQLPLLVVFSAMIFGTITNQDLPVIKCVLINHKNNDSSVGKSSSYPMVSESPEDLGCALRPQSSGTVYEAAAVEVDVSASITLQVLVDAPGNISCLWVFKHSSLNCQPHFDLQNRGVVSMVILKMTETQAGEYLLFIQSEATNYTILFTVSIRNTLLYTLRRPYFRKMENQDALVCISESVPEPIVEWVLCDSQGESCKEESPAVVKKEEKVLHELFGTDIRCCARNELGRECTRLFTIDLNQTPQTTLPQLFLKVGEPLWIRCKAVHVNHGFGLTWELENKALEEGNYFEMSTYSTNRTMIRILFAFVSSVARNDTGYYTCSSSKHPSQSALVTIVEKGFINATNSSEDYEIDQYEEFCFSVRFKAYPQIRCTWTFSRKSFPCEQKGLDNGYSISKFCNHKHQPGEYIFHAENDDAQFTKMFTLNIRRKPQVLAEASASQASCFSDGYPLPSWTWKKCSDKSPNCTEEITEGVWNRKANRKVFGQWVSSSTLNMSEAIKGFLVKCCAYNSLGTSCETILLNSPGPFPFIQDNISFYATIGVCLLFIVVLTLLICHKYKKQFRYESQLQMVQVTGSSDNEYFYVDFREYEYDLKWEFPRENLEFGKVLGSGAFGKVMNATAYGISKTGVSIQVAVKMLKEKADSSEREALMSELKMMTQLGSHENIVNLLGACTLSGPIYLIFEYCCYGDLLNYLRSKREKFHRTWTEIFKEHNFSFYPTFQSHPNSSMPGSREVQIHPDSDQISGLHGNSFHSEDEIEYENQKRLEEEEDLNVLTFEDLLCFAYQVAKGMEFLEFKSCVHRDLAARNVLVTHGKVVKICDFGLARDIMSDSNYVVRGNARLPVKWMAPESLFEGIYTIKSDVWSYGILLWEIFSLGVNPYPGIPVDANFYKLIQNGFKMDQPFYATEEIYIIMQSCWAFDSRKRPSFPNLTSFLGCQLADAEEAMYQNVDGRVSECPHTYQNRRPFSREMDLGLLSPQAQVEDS

Mus musculus [2] = assay: Anti-inflammatory activity against DSS-induced acute ulcerative colitis C57BL/6 mouse model assessed as reduction in watery stools at 20 to 40 mg/kg, po once a day measured after 2 days followed by 7 days after DSS treatment; assay type: functional, organism-based; conditions: dose 20-40 mg/kg, time 2.0 day
[3] = Inhibition of LPS/MDP-stimulated TNFalpha production in C57BL/6J mouse BMDM cells by ELISA relative to control; assay type: functional, cell-based
[4] = Clearance in Balb/C mouse plasma at 10 mg/kg, po measured upto 48 hrs by LC-MS/MS analysis; assay type: ADME, organism-based
[5] = target: Proto-oncogene tyrosine-protein kinase Src (Homo sapiens, UniProt P12931); assay: Inhibition of human c-SRC by kinase assay
Proto-oncogene tyrosine-protein kinase Src, sequence (P12931 2-536 limits assumed): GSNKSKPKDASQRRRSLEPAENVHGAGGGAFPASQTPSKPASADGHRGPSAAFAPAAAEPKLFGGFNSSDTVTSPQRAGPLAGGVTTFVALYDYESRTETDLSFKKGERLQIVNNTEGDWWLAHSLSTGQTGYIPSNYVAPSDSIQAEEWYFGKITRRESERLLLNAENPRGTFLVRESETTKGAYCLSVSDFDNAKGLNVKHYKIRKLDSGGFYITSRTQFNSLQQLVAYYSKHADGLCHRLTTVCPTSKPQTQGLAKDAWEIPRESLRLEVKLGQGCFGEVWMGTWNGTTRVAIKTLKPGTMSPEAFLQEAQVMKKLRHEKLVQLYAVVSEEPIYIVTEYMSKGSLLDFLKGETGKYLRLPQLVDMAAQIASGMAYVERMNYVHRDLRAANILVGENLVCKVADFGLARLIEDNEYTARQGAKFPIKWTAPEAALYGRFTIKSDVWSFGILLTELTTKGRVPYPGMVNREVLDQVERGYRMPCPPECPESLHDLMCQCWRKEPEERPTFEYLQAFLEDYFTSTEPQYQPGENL

RAW264.7 [6] = assay: Cytotoxicity against mouse RAW264.7 cells at 62.5 to 250 nM in presence of NOD measured after 24 hrs by propidium iodide staining based flow cytometry; assay type: toxicity, cell-based; conditions: raw264.7, 24 h, 0.25 µM, dose 62.5-250 nM
[7] = target: Serine/threonine-protein kinase SIK1 (Homo sapiens, UniProt P57059); assay: Inhibition of human SIK by kinase assay
Serine/threonine-protein kinase SIK1, sequence (P57059 whole entry): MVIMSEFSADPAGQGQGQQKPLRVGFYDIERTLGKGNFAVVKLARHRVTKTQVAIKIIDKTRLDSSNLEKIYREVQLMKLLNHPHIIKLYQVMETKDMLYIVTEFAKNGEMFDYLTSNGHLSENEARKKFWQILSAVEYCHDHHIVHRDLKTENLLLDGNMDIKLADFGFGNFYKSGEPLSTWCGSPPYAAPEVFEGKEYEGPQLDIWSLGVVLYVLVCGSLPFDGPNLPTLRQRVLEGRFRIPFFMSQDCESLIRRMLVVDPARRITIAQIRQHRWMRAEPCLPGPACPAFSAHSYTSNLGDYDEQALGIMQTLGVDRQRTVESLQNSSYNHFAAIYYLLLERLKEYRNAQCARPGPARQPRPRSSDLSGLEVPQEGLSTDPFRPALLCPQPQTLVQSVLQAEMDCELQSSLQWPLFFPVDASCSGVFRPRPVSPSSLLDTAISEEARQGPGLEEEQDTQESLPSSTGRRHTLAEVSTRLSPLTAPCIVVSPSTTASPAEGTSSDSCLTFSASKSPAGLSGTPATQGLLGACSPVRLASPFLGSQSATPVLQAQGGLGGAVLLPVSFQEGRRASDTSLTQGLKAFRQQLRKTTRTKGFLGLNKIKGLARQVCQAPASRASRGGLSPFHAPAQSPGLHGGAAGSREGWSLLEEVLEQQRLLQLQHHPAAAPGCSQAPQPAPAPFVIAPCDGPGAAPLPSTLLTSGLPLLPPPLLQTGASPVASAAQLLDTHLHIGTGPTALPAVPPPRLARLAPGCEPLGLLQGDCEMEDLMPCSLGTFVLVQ

[8] = target: Platelet-derived growth factor receptor beta (Homo sapiens, UniProt P09619); assay: Inhibition of human PDGFRbeta by kinase assay
Platelet-derived growth factor receptor beta, sequence (P09619 whole entry): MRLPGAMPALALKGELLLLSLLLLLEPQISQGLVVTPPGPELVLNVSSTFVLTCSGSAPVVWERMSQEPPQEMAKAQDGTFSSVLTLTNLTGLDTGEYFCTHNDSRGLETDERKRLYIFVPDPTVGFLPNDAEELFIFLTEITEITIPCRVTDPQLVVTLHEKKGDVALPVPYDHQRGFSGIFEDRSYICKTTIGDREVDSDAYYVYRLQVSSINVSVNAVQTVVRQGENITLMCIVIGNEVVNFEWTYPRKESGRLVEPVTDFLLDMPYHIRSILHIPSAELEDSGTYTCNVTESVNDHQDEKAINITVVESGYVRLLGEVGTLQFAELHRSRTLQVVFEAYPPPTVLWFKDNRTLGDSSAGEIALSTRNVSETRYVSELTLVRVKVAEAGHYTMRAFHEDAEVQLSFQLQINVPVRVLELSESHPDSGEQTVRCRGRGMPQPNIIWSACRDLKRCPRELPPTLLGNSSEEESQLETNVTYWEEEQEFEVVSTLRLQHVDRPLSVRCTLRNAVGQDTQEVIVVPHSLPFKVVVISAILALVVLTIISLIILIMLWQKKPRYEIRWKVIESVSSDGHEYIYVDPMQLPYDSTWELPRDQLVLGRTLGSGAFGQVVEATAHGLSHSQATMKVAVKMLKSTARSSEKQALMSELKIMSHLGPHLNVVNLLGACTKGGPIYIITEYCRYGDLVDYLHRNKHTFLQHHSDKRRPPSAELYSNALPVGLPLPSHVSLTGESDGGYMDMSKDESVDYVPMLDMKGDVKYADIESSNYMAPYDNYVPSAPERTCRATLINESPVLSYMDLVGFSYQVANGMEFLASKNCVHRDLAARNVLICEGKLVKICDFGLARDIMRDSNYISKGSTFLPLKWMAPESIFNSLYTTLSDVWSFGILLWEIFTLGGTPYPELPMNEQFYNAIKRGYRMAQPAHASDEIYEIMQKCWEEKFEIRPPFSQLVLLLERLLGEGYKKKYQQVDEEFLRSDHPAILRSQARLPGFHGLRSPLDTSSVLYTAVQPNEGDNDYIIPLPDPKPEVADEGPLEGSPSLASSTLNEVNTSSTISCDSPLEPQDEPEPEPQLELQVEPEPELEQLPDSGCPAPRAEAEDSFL

[9] = AUC (0 to t) in Balb/C mouse at 10 mg/kg, po measured upto 48 hrs by LC-MS/MS analysis; assay type: ADME, organism-based; set-up: time < 48 hrs, dose 10 mg/kg, route po; conditions: in vivo
[10] = Metabolic stability in human liver microsomes assessed as half life at 1 uM by LC/MS/MS analysis; assay type: ADME, Microsome
[11] = AUC (0 to t) in Balb/C mouse at 10 mg/kg, iv measured upto 48 hrs by LC-MS/MS analysis; assay type: ADME, organism-based; set-up: time < 48 hrs, dose 10 mg/kg, route iv; conditions: in vivo
BMDM = assay: Cytotoxicity against mouse BMDM cells at 62.5 to 250 nM in presence of NOD; assay type: toxicity, cell-based; conditions: 0.25 µM, dose 62.5-250 nM
[12] = Drug uptake in DSS-induced acute ulcerative colitis C57BL/6 mouse model assessed as drug concentration in colon at 20 mg/kg, po after 0.5 hrs; assay type: ADME, organism-based; conditions: read-out: Drug uptake
Mus musculus [13] = assay: Anti-inflammatory activity against DSS-induced acute ulcerative colitis C57BL/6 mouse model assessed as reduction in disease severity at 20 to 40 mg/kg, po once a day measured after 2 days followed by 7 days after DSS treatment; assay type: functional, organism-based; conditions: dose 20-40 mg/kg, time 2.0 day
[14] = Elimination half life in Balb/C mouse at 10 mg/kg, iv measured upto 48 hrs by LC-MS/MS analysis; assay type: ADME, organism-based; conditions: in vivo, read-out: beta t1/2 (converted)
RAW264.7 [15] = assay: Inhibition of MDP-stimulated TNFalpha production in mouse RAW264.7 cells assessed as TNFalpha mRNA level upto 50 nM incubated for 22 hrs by real-time PCR analysis; assay type: functional, cell-based
[16] = target: T2, Receptor-interacting serine/threonine-protein kinase 1 (Homo sapiens, UniProt Q13546); assay: Inhibition of human RIPK1 by kinase assay
T2 sequence (Q13546 whole entry): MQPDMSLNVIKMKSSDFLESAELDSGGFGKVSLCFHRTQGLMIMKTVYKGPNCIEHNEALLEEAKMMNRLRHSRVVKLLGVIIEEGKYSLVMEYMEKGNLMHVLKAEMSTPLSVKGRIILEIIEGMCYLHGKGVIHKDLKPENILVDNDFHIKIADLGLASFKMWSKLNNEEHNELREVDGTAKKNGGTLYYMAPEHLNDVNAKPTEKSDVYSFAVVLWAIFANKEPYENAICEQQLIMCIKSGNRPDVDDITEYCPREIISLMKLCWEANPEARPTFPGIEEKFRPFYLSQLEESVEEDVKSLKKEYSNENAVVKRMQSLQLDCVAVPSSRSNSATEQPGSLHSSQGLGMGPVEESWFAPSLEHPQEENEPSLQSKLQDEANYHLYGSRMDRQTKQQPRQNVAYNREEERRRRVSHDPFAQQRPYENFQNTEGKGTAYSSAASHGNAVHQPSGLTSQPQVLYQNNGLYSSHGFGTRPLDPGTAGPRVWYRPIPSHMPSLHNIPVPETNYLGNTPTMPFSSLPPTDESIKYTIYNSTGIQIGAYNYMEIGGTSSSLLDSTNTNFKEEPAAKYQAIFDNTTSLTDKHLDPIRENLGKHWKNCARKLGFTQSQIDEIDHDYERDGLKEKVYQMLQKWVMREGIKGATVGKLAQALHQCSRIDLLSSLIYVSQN

[17] = Clearance in Balb/C mouse plasma at 10 mg/kg, iv measured upto 48 hrs by LC-MS/MS analysis; assay type: ADME, organism-based
[18] = Oral bioavailability in Balb/C mouse at 10 mg/kg measured upto 48 hrs by LC-MS/MS analysis; assay type: ADME, organism-based; conditions: in vivo

For `Cc1ccc(-c2cn([C@H]3CC[C@@H](N)CC3)c3ncnc(N)c23)c(F)c1`, the IC50 [1] was 4.79 µM, the Activity (Mus musculus [2]) was “Active” and the IC50 [3] was 0.0003 µM. The CL/F [4] was 1130 mL/min/kg, the IC50 [5] was 0.056 µM and the Activity (RAW264.7 [6]) was “Non-Toxic”. It also gave an IC50 [7] of 0.089 µM, an IC50 [8] of 0.862 µM and an AUC(0-t) at 48 h [9] of 151 ng·h/mL. For the same compound, the half-life at 1 µM [10] was over 2 h, the AUC(0-t) at 48 h [11] was 1000 ng·h/mL and the Activity (BMDM) was “Non-Toxic”. For the same compound, the concentration at 0.5 h [12] was 3620 ng/g, the Activity (Mus musculus [13]) was “Active” and the half-life [14] was 3.9 h. For the same compound, the inhibition (RAW264.7 [15]) was “Active”, the IC50 [16] was over 30 µM and the clearance [17] was 166 mL/min/kg. For the same compound, the bioavailability [18] was 15.1%.
